Reference: patent US20090274773A1, “ANTIPROLIFERATIVE COMBINATION COMPRISING CYC-682 AND A CYTOTOXIC AGENT” (Cyclacel Limited, priority 2005, published 2009)
Where two headings read alike, the source gives them in different places. Values belong to the molecule of their own block, whether it stands above or below them.

Experiments:
Format in all cases: cell-based, human
COLO205 = assay: MTT growth inhibition assay, single agent; conditions: read-out: Antiproliferative effects IC50s (MTT assay)
Protocol: (§1) All cell lines were obtained from the ATCC (Rockville, Md.). Cells were grown as monolayers in RPMI medium supplemented with 10% fetal calf serum (Invitrogen, Cergy-Pontoise, France), 2 mM glutamine, 100 units/ml penicillin and 100 μg/ml streptomycin. All cells were split twice a week using trypsin/EDTA (0.25% and 0.02%, respectively; Invitrogen, Cergy-Pontoise, France) and seeded at a concentration of 2.5×10^4 cells/ml. All cell lines were tested regularly for Mycoplasma contamination by PCR using a Stratagene kit (La Jolla, Calif.).
(§2) The MTT assay was carried out as described previously (Hansen M B, Nielsen S E, Berg K. Re-examination and further development of a precise and rapid dye method for measuring cell growth/cell kill. J Immunol Methods. 1989 May 12; 119(2):203-10). In brief, cells were seeded in 96-well tissue culture plates at a density of 2×10^3 cells/well. Cell viability was determined after a 120-hour incubation, by the calorimetric conversion of yellow, water-soluble tetrazolium MTT (3-[4,5-dimethylthiazol-2-yl]-2,5-diphenyltetrazolium bromide; Sigma, Saint-Quentin Fallavier, France), into purple, water-insoluble formazan. This reaction is catalyzed by mitochondrial dehydrogenases and is used to estimate the relative number of viable cells (Mosmann, T, Rapid calorimetric assay for cellular growth and survival: application to proliferation and cytotoxicity assays. J Immunol Methods. 1983 Dec. 16; 65 (1-2):55-63). Cells were incubated with 0.4 mg/ml MTT for 4 hours at 37° C. After incubation, the supernatant was discarded, the cell pellet was resuspended in 0.1 ml of DMSO and the absorbance was measured at 560 nm using a microplate reader (Dynatech, Michigan). Wells with untreated cells or with drug-containing medium without cells were used as positive and negative controls, respectively. Growth inhibition curves were plotted as a percentage of untreated control cells.
(§3) The cells were seeded at 2×10^3 cells/well in 96-well plates and treated 24 hours later with increasing concentrations of CYC682. After incubation times of 1 hour, 24 hours or 48 hours, the cells were washed and post-incubated in drug-free medium for 72 hours. Growth inhibition was then determined by the MTT assay.

HCC2998 = assay: MTT growth inhibition assay, single agent; conditions: read-out: Antiproliferative effects IC50s (MTT assay)
Protocol: as §1, §2, §3

HCT116 = assay: MTT growth inhibition assay, single agent; conditions: read-out: Antiproliferative effects IC50s (MTT assay)
Protocol: as §1, §2, §3

HOP62 = assay: MTT growth inhibition assay, single agent; conditions: read-out: Antiproliferative effects IC50s (MTT assay)
Protocol: as §1, §2, §3

HOP92 = assay: MTT growth inhibition assay, single agent; conditions: read-out: Antiproliferative effects IC50s (MTT assay)
Protocol: as §1, §2, §3

HT29 = assay: MTT growth inhibition assay, single agent; conditions: read-out: Antiproliferative effects IC50s (MTT assay)
Protocol: as §1, §2, §3

IGROV1 = assay: MTT growth inhibition assay, single agent; conditions: read-out: Antiproliferative effects IC50s (MTT assay)
Protocol: as §1, §2, §3

MCF7 = assay: MTT growth inhibition assay, single agent; conditions: 24 hours exposure, read-out: Antiproliferative effects IC50s (MTT assay)
Protocol: as §1, §2, §3

MDA-MB-435 = assay: MTT growth inhibition assay, single agent; conditions: 24 hours exposure, read-out: Antiproliferative effects IC50s (MTT assay)
Protocol: as §1, §2, §3

OVCAR1 = assay: MTT growth inhibition assay, single agent; conditions: 24 hours exposure, read-out: Antiproliferative effects IC50s (MTT assay)
Protocol: as §1, §2, §3

COLO205 cancer cell line = assay: CYC682 drug-combination study (MTT, Chou and Talalay combination index, isobolograms); conditions: COLO205; CYC682 given prior to named agent
Protocol: (§4) For simultaneous drug exposure, cells were seeded at 2×10^3 cells/well in 96-well plates and treated 24 hours later with increasing concentrations of CYC682 alone or with various concentrations of another drug corresponding to the IC20, IC40 or IC60 values. After approximately four doubling times (120 hours), the growth inhibitory effect was measured by the MTT assay.
(§5) Cells were seeded at 2×10^3 cells/well in 96-well plates and allowed to grow for 24 hour. Cells were then exposed to various concentrations of the first drug for 1 hour/24 hours/48 hours, the drug was removed, the cells were washed and the second drug was added. After additional drug exposure, the second drug was removed, the cells were washed and incubated in drug-free medium for 72 hours. Growth inhibition was then determined by the MTT assay.
(§6) Effects of drug combinations were evaluated using the Chou and Talalay method which is based on the median-effect principle (Chou T C, Talalay P. Quantitative analysis of dose-effect relationships: the combined effects of multiple drugs or enzyme inhibitors. Adv Enzyme Regul. 1984; 22:27-55). […] On the basis of the slope of the curve for each drug in a combination, it can be determined whether the drugs have mutually nonexclusive effects (e.g., independent or interactive modes of action).
(§7) The combination index (CI) is then determined by the equation:
(§8) CI=[(C)1/(Cx)1]+[(C)2/(Cx)2]+[α(C)1(C)2/(Cx)1(Cx)2],
(§9) where (Cx)1 is the concentration of drug 1 required to produce an x percent effect of that drug alone, and (C)1, the concentration of drug 1 required to produce the same x percent effect in combination with (C)2. If the mode of action of the drugs is mutually exclusive or nonexclusive, then α is 0 or 1, respectively. CI values will be calculated with this equation using different values of fa (i.e., for different degrees of cell growth inhibition). CI values of <1 indicate synergy, the value of 1 indicates additive effects, and values >1 indicate antagonism. Data were analyzed on an IBM-PC computer using concentration-effect analysis for microcomputer software (Biosoft, Cambridge, UK). For statistical analysis and graphs we will use Instat and Prism software (GraphPad, San Diego, USA). The dose-effect relationships for the drugs tested, alone or in paired combinations, were subjected to median-effect plot analysis to determine their relative potency (IC50), shape (m), and conformity (r) in each selected cell line. As stated above, the IC50 and m values were respectively used to calculate synergism and antagonism on the basis of the CI equation. Results were expressed as the mean±standard deviation of at least 3 experiments performed in duplicate. In each experiment, cells were exposed to the paired combinations for 48 hours as described above. Means and standard deviations were compared using Student's t-test (two-sided p value).
(§10) The effect of sequential and simultaneous exposure (FIG. 2) to CYC682 with oxaliplatin, doxorubicin, docetaxel and gemcitabine was studied in two sensitive colon cancer cell lines—COLO205 and HCT116 using combination indices that represent an affected fraction for the concentration of drugs corresponding to IC50 as previously described by Chou and Talalay.

HCT116 cancer cell line = assay: as above; conditions: HCT116
Protocol: as §4, §5, §6, §7, §8, §9, §10

NSCLC cell line H1299 = assay: CNDAC combinations (alamar blue, Calcusyn Combination Index); conditions: H1299
Protocol: Experiments in the NSCLC cell lines H1299 or RERF-LC-MA were performed in 96-well plates, with cells seeded at a density of 3,000/well, in DMEM containing 10% (v/v) FCS. Stock solutions of all drugs were made up in dimethylsulfoxide (DMSO), with the exception of gemcitabine, which was dissolved in 0.9% (w/v) sterile saline solution.
For experimental assessment of potential synergistic interactions, the concomitant treatment regime involved simultaneous treatment of cells with CNDAC and the other agent under investigation for 72 h, alongside suitable controls of cells treated with the individual compounds alone for 72 hr. In the sequential treatment regimes, one drug was added to the cells 2 h after plating, and left for 24 h. Media was then aspirated, replaced with fresh media containing the second drug and incubated for 72 h. The two individual treatment controls for the sequential treatment regime involved substituting one of the drug treatments with drug-free media. […] Drug interactions were analysed using the Calcusyn software package (BioSoft, Cambridge, U.K.) described below.

[1] = named agent in combination with CNDAC, CNDAC 24 h then other agent 72 h
[2] = named agent in combination with CNDAC, named agent 24 h then CNDAC 72 h
[3] = named agent in combination with CNDAC, simultaneous treatment 72 h

Compound: O=C(O)C(=O)O.[NH-][C@@H]1CCCC[C@H]1[NH-].[Pt+2] [Oxaliplatin]
IC50 (COLO205; 24 hours exposure): 8 ± 1.6 µM
IC50 (HCC2998; 24 hours exposure): 4 ± 1.4 µM
IC50 (HCT116; 24 hours exposure): 20 ± 4 µM
IC50 (HOP62; 24 hours exposure): 200 ± 40 µM
IC50 (HOP92; 24 hours exposure): 1.4 ± 0.2 µM
IC50 (HT29; 24 hours exposure): 60 ± 12 µM
IC50 (IGROV1; 24 hours exposure): 107 ± 21 µM
IC50 (MCF7): 35 ± 7 µM
IC50 (MDA-MB-435): 37 ± 21 µM
IC50 (OVCAR1): 50 ± 10 µM
Interaction with CYC682 (isobologram) (COLO205 cancer cell line): synergy
Interaction with CYC682 (isobologram) (HCT116 cancer cell line; CYC682 given prior to named agent): synergistic activity
Interaction with CYC682 (isobologram) (HCT116 cancer cell line; named agent given prior to CYC682): synergistic activity

Compound: CCC1=C[C@@H]2CN(C1)Cc1c([nH]c3ccccc13)[C@@](C(=O)OC)(c1cc3c(cc1OC)N(C)[C@H]1[C@@](O)(C(=O)OC)[C@H](OC(C)=O)[C@]4(CC)C=CCN5CC[C@]31[C@@H]54)C2 [Vinorelbine]
Interaction with CNDAC (in words) (NSCLC cell line H1299; all three of the treatment regimes tested): synergy
Combination Index at ED75, CNDAC pretreatment (NSCLC cell line H1299; [1]): 0.67
Combination Index at ED90, CNDAC pretreatment (NSCLC cell line H1299; [1]): 0.67
Combination Index at ED50, CNDAC pretreatment (NSCLC cell line H1299; named agent in combination with CNDAC, CNDAC 24 h then other agent 72 h, C.I. <1 synergistic, 1 additive, >1 antagonistic): 1.04
Combination Index at ED50, Other (named agent) pretreatment (NSCLC cell line H1299; [2]): 0.60
Combination Index at ED75, Other (named agent) pretreatment (NSCLC cell line H1299; [2]): 0.56
Combination Index at ED90, Other (named agent) pretreatment (NSCLC cell line H1299; [2]): 0.66
Combination Index at ED50, Concomitant (NSCLC cell line H1299; [3]): 0.63
Combination Index at ED75, Concomitant (NSCLC cell line H1299; [3]): 0.97
Combination Index at ED90, Concomitant (NSCLC cell line H1299; [3]): 2.25

IC50 (COLO205; Homo sapiens, COLO 205, 24 hours exposure): 28 ± 8 µM
IC50 (HCC2998; Homo sapiens, HCC 2998, 24 hours exposure): 3.7 ± 0.5 µM
IC50 (HCT116; Homo sapiens, HCT-116, 24 hours exposure): 1.2 ± 0.4 µM
IC50 (HT29; Homo sapiens, HT-29, 24 hours exposure): 130 ± 40 µM
IC50 (MCF7; Homo sapiens): > 300 µM
IC50 (MDA-MB-435; Homo sapiens): 38 ± 9 µM
IC50 (OVCAR1; Homo sapiens): > 300 µM
Compound: Nc1ccn([C@@H]2O[C@H](CO)[C@H](O)[C@@H]2O)c(=O)n1 [Ara-C, 4-amino-1-[(2R,3S,4R,5R)-3,4-dihydroxy-5-(hydroxymethyl)oxolan-2-yl]pyrimidin-2-one]
IC50 (HOP62; Homo sapiens, HOP-62, 24 hours exposure): 6.3 ± 2.8 µM
IC50 (HOP92; Homo sapiens, HOP-92, 24 hours exposure): 1.3 ± 0.3 µM
IC50 (IGROV1; Homo sapiens, IGROV-1, 24 hours exposure): 89 ± 21 µM
